The text below walks through data of patent publication US6191124A, “Methanol derivatives for treatment of retroviral infections especially HIV infections” (priority 1997, dated 2001).

Read-outs that look alike come from different tables or passages of the source. Square brackets hold non-standard residues; d marks the D form. Peptide text beside a SMILES is read from it. * marks the point of attachment. Sta = CC(C)C[C@H](N)[C@@H](O)CC(=O)O; Isovaleryl = CC(C)CC(=O)* A value given as a limit tells only on which side of the number the result lay.

The test system of one data set is HIV infection / AIDS. Conditions: cited from earlier work.
The test system of data set [1] is viral reverse transcriptase. To be noted: cited from earlier work.
The target in data set [2] is T1, HIV-1 protease (Human immunodeficiency virus type 1 group M subtype B, UniProt P04585). The data set can be described thus: HIV protease screening assay (fluorescently labeled biotinylated substrate, streptavidin beads), percent inhibition. Type of data set: biochemical. Here is the method: The HIV protease screening assay is based on fluorescently labeled substrate which can be resolved from nonlabeled cleavage product using special beads coated with streptavidin. The substrate is biotinylated at the amino terminal arginine and fluorescently labeled with fluorescein isothiocynate (FITC) at the carboxyl terminal lysine. This assay has been employed to detect novel, nonpeptidic inhibitors of HIV-1 protease. Substrate (20 μl of 0.2 μM), sample (10 μl of desired concentration), and enzyme (10 μl of 0.1 μM) are added to a 96 well pandex plate. The assay is run in 0.1 M sodium acetate buffer at pH 5.5 in the presence of 1.0 M sodium chloride and 0.05% NP-40 with incubated in the dark for one hour at room temperature. Strepavidin coated polystyrene beads {40 μl of 0.1% (w/v)} are added and the plate is incubated in the dark for an additional half hour. The labeled cleavage product is separated from the unreacted substrate via filtration and is read on the Idexx screen machine. The data are analyzed by appropriate computer algorithms to ascertain percent inhibition values.

Data set [3] addresses T1, HIV-1 protease. The data set can be described thus: Determination of Ki values, HIV-1 protease. Type of data set: biochemical. How it is done:
Determination of Ki values utilizes the same materials and equipment employed for percent inhibition studies. Two-fold serial dilutions are made for a given inhibitor from 2, 3 or 4 starting concentrations with a total of 24, 36 or 48 individual inhibitor concentrations. These dilutions are performed utilizing the BioMek robotics system. The assay consists of 10 μL or 40 nM HIV-1 protease, 10 μL of the various inhibitor concentrations, and 20 μL of 200 μM substrate (40 μL total). The reaction is allowed to proceed for 90 min at room temperature, terminated with 40 μL of avidin beads and processed (supra vide). An inhibitor with a known Ki is run in parallel to verify the validity of the assay. The data is processed utilizing a computer program employing a nonlinear least square analysis of the data to generate the Ki values.

The subject of another data set is HIV-1IIIB. The data set can be described thus: HIV-1IIIB replication in human T-cell line H9 (p24 core antigen ELISA). The format is cell-based. To be noted: human T-cell lines, e.g., H9, infected with HIV-1IIIB. Here is the method: Several compounds of the present invention, such as 2,3-dimethyl-[…]-(2-phenylethyl)imidazo[2,1-b]thiazole-5-methanol were tested in known human cell lines, such as human T-cell lines, e.g., H9, which were infected with HIV-1IIIB. […] The H9 cell line was originally derived from the peripheral blood of a human lymphoma patient and extensively cloned so that the cells were highly susceptible to HIV infection. Virus-free H9 cells were maintained in a humidified 5% CO2 atmosphere at 37° C. in RPMI Complete (RC) medium, which was composed of RPMI 1640 supplemented with 10% heat-inactivated fetal calf serum (FCS), 10 mM Hepes, 2 mM L-glutamine, 100 μg/ml streptomycin, and 100 U/ml penicillin. H9 cultures were split 1:5 twice weekly for a maximum 12-15 times. […]
HIVIIIb 's ability to replicate efficiently in human T lymphoblastoid cell lines made this strain of HIV the logical choice for protease inhibitor screen. […] The titer, measured at the 50% Tissue Culture Infectious Dose (TCID50), was determined by the Reed-Muench method of statistical analysis to determine the 50% infectivity endpoint.
The standard acute infectivity assay for the evaluation of the inhibitors of HIV protease was performed in 96 well microplates. […] The amount of HIV p24 core antigen was quantified with an ELISA procedure by following the manufacturers directions (Coulter Diagnostics). […]
A general note: An ELISA detects its analyte on a solid surface through an enzyme-linked reagent.

The subject of another data set is HIV-I protease. Conditions: cited from earlier work.
For data set [4] the following is noted: cited from earlier work.
The test system of the next data set is HIV. To be noted: cited from earlier work.
The subject of another data set is hepatic glycolysis. To be noted: cited from earlier work.
[5] abbreviates: read-out: % Protease Inhibition.
The mark [6] stands for this setting: read-out: Protease Inhibition, % Inhibition.
Setting [7] is: Table 4, read-out: Protease Inhibition, Ki.

Turning to `Cc1cn([C@H]2C[C@H](N=[N+]=[N-])[C@@H](CO)O2)c(=O)[nH]c1=O` [AZT, 3'-azido-3'-deoxy-thymidine], the “decrease of mortality and frequency of opportunistic infections” value in the data set on HIV infection / AIDS is “shown to decrease the morality and frequency of opportunistic infections associated with AIDS”. For the same compound, the “inhibition of viral reverse transcriptase” value in data set [1] was “known inhibitor of viral reverse transcriptase”.

What is called inhibition is the drop in the measured response relative to a control, in per cent. The Ki is a dissociation constant, usually derived from enzyme kinetics or from competition with a known ligand. With `Cc1sc2ncc(C(O)CCCc3ccccc3)n2c1C` (stereo not drawn) [Example 3, 2,3-Dimethyl-α-(3-phenylpropyl)imidazo-[2,1-b]thiazole-5-methanol], the “% Protease Inhibition” value on HIV-1 protease [2] (1.1-1.3 μM (Table 1)) came to 16%; at HIV-1 protease [2] (3.3-3.7 μM (Table 1)) it was 72%. Also, the inhibition at 10 µM at HIV-1 protease [2] (setting [5]) was 115%. Further, the Ki on HIV-1 protease [3] (Table 1, read-out: Ki) was 0.246 µM.

As to `Cc1sc2ncc(C(O)CCc3ccccc3)n2c1C` (stereo not drawn) [Example 11, 2,3-Dimethyl-α-(2-phenylethyl)imidazo[2,1-b]thiazole-5-methanol], the “% Protease Inhibition” value on HIV-1 protease [2] (1.1-1.3 μM (Table 1)) was 96%; at HIV-1 protease [2] (3.3-3.7 μM (Table 1)), 109%. Also, the inhibition at 10 µM on HIV-1 protease [2] (setting [5]) was determined as 112%. Moreover, in the data set with HIV-1IIIB, the “inhibition of retroviral replication” value is reported as “found to inhibit retroviral replication”. In addition, the inhibitory constant (Ki) at HIV-1 protease [3] (Table 1, read-out: Ki) worked out at 0.12 µM.

Turning to `Cc1sc2ncc(C(O)/C=C/c3ccccc3)n2c1C` (stereo not drawn) [Example 12, 2,3-Dimethyl-α-(2-phenylethenyl)imidazo[2,1-b]thiazole-5-methanol], the “% Protease Inhibition” value on HIV-1 protease [2] (1.1-1.3 μM (Table 1)) worked out at 63%; at HIV-1 protease [2] (3.3-3.7 μM (Table 1)) it was 103%. On HIV-1 protease [2] (setting [5]), the inhibition at 10 µM worked out at 110%. For the same compound, the inhibition constant Ki at HIV-1 protease [3] (Table 1, read-out: Ki) came to 0.567 ± 0.282 µM.

In the case of `OC(CCc1ccccc1)c1cnc2sc3c(n12)CCCC3` (stereo not drawn) [Example 14, 5,6,7,8-Tetrahydro-α-(2-phenylethyl)imidazo[2,1-b]benzothiazole-3-methanol], on HIV-1 protease [2] (setting [6]), the inhibition at 1.1 µM turned out to be 73%. Besides, the Ki at HIV-1 protease [3] (setting [7]) came out at 0.068 ± 0.014 µM.

Turning to `OC(CCc1ccccc1)c1cnc2sc3c(n12)CCCCC3` (stereo not drawn) [Example 15, 6,7,8,9-Tetrahydro-α-(2-phenylethyl)-5H-cyclohept[d]imidazo[2,1-b]thiazole-3-methanol], the inhibition at 1.1 µM at HIV-1 protease [2] (setting [6]) was determined as 57%. Also, the Ki on HIV-1 protease [3] (setting [7]) worked out at 0.057 ± 0.014 µM.

Take `OC(CCCCc1ccccc1)c1cnc2sc3c(n12)CCCCC3` (stereo not drawn) [Example 16, 6,7,8,9-Tetrahydro-α-(4-phenylbutyl)-5-H-cyclohept[d]imidazo[2,1-b]thiazole-3-methanol]: the inhibition at 1.1 µM at HIV-1 protease [2] (setting [6]) was 54%. Further, the inhibitory constant (Ki) on HIV-1 protease [3] (setting [7]) turned out to be 0.227 ± 0.042 µM.

For `OC(CCc1ccccc1)c1cnc2sc3c(n12)CCCCCC3` (stereo not drawn) [Example 17, 5,6,7,8,9,10-Hexahydro-α-(2-phenylethyl)cyclooct[d]imidazo-[2,1-b]thiazole-3-methanol], at HIV-1 protease [2] (setting [6]), the inhibition at 1.1 µM is 62%. For the same compound, the Ki at HIV-1 protease [3] (setting [7]) was 0.072 ± 0.026 µM.

On to `OC(/C=C/c1ccco1)c1cnc2sc3c(n12)CCCCC3` (stereo not drawn) [Example 38, α-[2-(2-Furanyl)ethenyl]-6,7,8,9-tetrahydro-5H-cyclohept[d]imidazo[2,1-b]thiazol-3-methanol], for which the inhibition at 1.1 µM at HIV-1 protease [2] (1.1 μM (Table 7), read-out: PROTEASE INHIBITION) was 12%. Besides, the inhibition at 3.3 µM on HIV-1 protease [2] (3.3 μM (Table 7), read-out: PROTEASE INHIBITION) was determined as 60%. For the same compound, the inhibition at 10 µM on HIV-1 protease [2] (10 μM (Table 7), read-out: PROTEASE INHIBITION) came to 98%.

`OC(CCc1ccco1)c1cnc2sc3c(n12)CCCCC3` (stereo not drawn) [Example 39, α-[2-(2-Furanyl)ethyl]-6,7,8,9-tetrahydro-5H-cyclohept[d]imidazo[2,1-b]thiazol-3-methanol]: the inhibition at 1.1 µM on HIV-1 protease [2] (1.1 μM (Table 6), read-out: PROTEASE INHIBITION) is 54%. On HIV-1 protease [2] (3.3 μM (Table 6), read-out: PROTEASE INHIBITION), the inhibition at 3.3 µM turned out to be 85%.

In the case of `Cc1sc2ncc(C(O)/C=C/c3ccco3)n2c1C` (stereo not drawn) [Example 41, α-[2-(2-Furanyl)ethenyl]2,3-dimethylimidazo[2,1-b]thiazol-3-methanol], the inhibition at 3.3 µM on HIV-1 protease [2] (3.3 μM (Table 9), read-out: PROTEASE INHIBITION) is 19%. Also, at HIV-1 protease [2] (10 μM (Table 9), read-out: PROTEASE INHIBITION), the inhibition at 10 µM was found to be 81%.

Take `Cc1sc2ncc(C(O)CCc3ccco3)n2c1C` (stereo not drawn) [Example 42]: the inhibition at 1.1 µM on HIV-1 protease [2] (1.1 μM (Table 8), read-out: PROTEASE INHIBITION) is less than 10%. Further, on HIV-1 protease [2] (3.3 μM (Table 8), read-out: PROTEASE INHIBITION), the inhibition at 3.3 µM was 46%. For the same compound, the inhibition at 10 µM on HIV-1 protease [2] (10 μM (Table 8), read-out: PROTEASE INHIBITION) came to 92%.

As to `CC(C)CC(=O)N[C@H](C(=O)N[C@H](C(=O)N[C@@H](CC(C)C)[C@@H](O)CC(=O)N[C@@H](C)C(=O)N[C@@H](CC(C)C)[C@@H](O)CC(=O)O)C(C)C)C(C)C` [Pepstatin A] (Isovaleryl-VV[Sta]A[Sta]-OH), the “inhibition of HIV-I protease” value with HIV-I protease is reported as “inhibitor of HIV-I protease”.

Consider `Nc1ccn([C@H]2CC[C@@H](CO)O2)c(=O)n1` [ddC], for which the limiting toxicity entry in [4] (humans, clinical) is “peripheral neuropathy which is reversible at low doses”. Also, the “activity against HIV in vitro” value in the data set with HIV is given as “potent activity against HIV in vitro”.

As for `O=c1[nH]cnc2c1ncn2[C@H]1CC[C@@H](CO)O1` [ddI], the “stimulation of hepatic glycolysis” value in the data set with hepatic glycolysis was “shown to stimulate hepatic glycolysis leading to irreversible liver damage”. The limiting toxicity result in data set [4] (in vivo) is “peripheral neuropathy and pancreatitis”. Besides, the “activity against HIV in vitro” value in the data set with HIV is “potent activity against HIV in vitro”.
